Data as given in article PMC3792051, “Polyenylpyrrole Derivatives Inhibit NLRP3 Inflammasome Activation and Inflammatory Mediator Expression by Reducing Reactive Oxygen Species Production and Mitogen-Activated Protein Kinase Activation” (PLoS ONE, 2013).

How the values were obtained:
[1] = test system: LPS-activated RAW 264.7 macrophages; experiment: iNOS and COX-2 expression by Western blot; format: cell-based, murine; conditions: 30 min pretreatment, LPS 24 h
Description: Cells were washed twice with ice-cold phosphate-buffered saline (PBS) and lysed on ice for 5 min with lysis buffer (20 mM Tris-HCl, pH 7.5, 150 mM NaCl, 1 mM Na 2EDTA, 1 mM EGTA, 1% Triton X-100, 2.5 mM sodium pyrophosphate, 1 mM beta-glycerophosphate, 1 mM Na 3VO4, 1 µg/ml of leupeptin, 1 mM PMSF, protease inhibitor cocktail). The lysate was then centrifuged at 12,000 x g at 4 °C for 10 min and the pellet discarded. Proteins in the supernatant were separated by SDS-PAGE and electrotransferred to a PVDF membrane (EMD Millipore Corporation), which was then blocked by incubation for 1 h at room temperature in blocking buffer [(5% nonfat milk in PBS containing 0.1% Tween 20 (PBST)], then incubated for 2 h at room temperature with the primary antibody diluted in blocking buffer. After three washes in PBST, the membrane was incubated for 1 h at room temperature with an appropriate HRP-conjugated secondary antibody diluted in blocking buffer and developed using an enhanced chemiluminescence Western blot detection system (EMD Millipore Corporation).
(§1) To investigate the inhibitory effect of compounds 1h, 1i, and 1n on the LPS-induced inflammatory response, NO levels in the supernatants of RAW 264.7 macrophages incubated with DMSO (vehicle) or compound 1h, 1i, or 1n for 30 min before, and during, incubation for 24 h with LPS (1 µg/ml) were measured by the Griess reaction. […] We next investigated their effect on the expression of iNOS, the NO producing enzyme, using Western blots.
(§2) Figure 2 Effect of polyenylpyrrole derivatives on the expression of inflammatory mediators in LPS-stimulated RAW 264.7 macrophages. In (A) and (C), the cells (5 × 10^5/ml; 1 ml) were incubated for 30 min with 2.5-40 µM compound 1h, 1i, or 1n or DMSO (vehicle), then LPS (1 µg/ml) was added and incubation continued for 24 h, then NO (A) or IL-6 or TNF-α (C) in the culture medium was assayed by the Griess reaction or ELISA, respectively. In (B), cells (5 × 10^5/ml; 1 ml) were pretreated for 30 min with 2.5-40 µM compound 1h or DMSO, then LPS (1 µg/ml) was added and incubation continued for 24 h, then expression of iNOS and COX-2 was measured by Western blotting. The fold increase is the intensity of the band of interest divided by that of the actin band normalized to the corresponding value for the 0 LPS/0 inhibitor control.

[2] = test system: LPS-activated RAW 264.7 macrophages; experiment: NO production inhibitory assay (Griess reaction); format: cell-based, murine
Description: RAW 264.7 cells seeded in 24-well plates at a density of 5 × 10^5 cells/ml (1 ml) were incubated for 24 h with or without LPS (1 µg/ml) in the absence or presence of the test samples, then NO production was measured indirectly by analysis of nitrite levels using the Griess reaction.
as §1, §2

[3] = test system: LPS-activated J774A.1 macrophages; experiment: IL-6 and TNF-α secretion by ELISA; format: cell-based, murine; conditions: J774A.1, 10-40 µM, LPS 1 µg/ml 24 h
Description: (§3) The effects of the test samples on IL-1β, TNF-α, and IL-6 production were measured by ELISA according to the manufacturer’s instructions. In brief, 50 µl of biotinylated antibody reagent and 50 µl of supernatant were added to a stripwell plate precoated with anti-mouse IL-1β, TNF-α, or IL-6 antibodies, which was then incubated at room temperature for 2 h. After washing the plate three times with washing buffer, 100 µl of diluted streptavidin-HRP concentrate was added to each well and the plate incubated at room temperature for 30 min. The washing process was repeated, then 100 µl of a premixed tetramethylbenzidine substrate solution was added to each well and the plate incubated at room temperature in the dark for 30 min. After addition of 100 µl of stop solution to each well, the absorbance at 450 nm of each well was measured on a microplate reader.
(§4) Figure 3 Effect of compound 1h on LPS-induced secretion of IL-6 and TNF-α by J774A.1 macrophages, peritoneal macrophages, and JAWSII dendritic cells. (A) J774A.1 macrophages, (B) peritoneal macrophages, or (C) JAWSII dendritic cells (all 4 × 10^5/ml; 1 ml) were incubated for 30 min with 10-40 µM compound 1h or DMSO, then LPS (1 µg/ml) was added and incubation continued for 24 h, then IL-6 levels (left panels) and TNF-α levels (right panels) in the culture medium were measured by ELISA. The data are expressed as the mean ± SD for three separate experiments. *, **, and *** indicate a significant difference at the level of p < 0.05, p < 0.01, or p < 0.001, respectively, compared to the DMSO/LPS group.

[4] = test system: LPS-activated JAWSII dendritic cells; experiment: IL-6 and TNF-α secretion by ELISA; format: cell-based, murine; conditions: 10-40 µM, LPS 1 µg/ml 24 h
Description: as §3, §4

RAW 264.7 cells = experiment: AlamarBlue assay for cell viability (cytotoxicity); conditions: read-out: IC50 (cytotoxicity), RAW 264.7 macrophages, 24 h treatment, 6.25-100 µM tested
[5] = test system: NLRP3 inflammasome in LPS + ATP-activated JAWSII cells; experiment: NLRP3 inflammasome-mediated IL-1β secretion; format: cell-based, murine

What does the source list for O=c1cc(O)cc(/C=C/C=C/C=C/C=C/c2[nH]ccc2Cl)o1 [compound 1h]?
COX-2 expression ([1]; 0-40 µM): did not affect expression of COX-2; LPS-induced iNOS expression ([1]; 0-40 µM): reduced LPS-induced iNOS expression; Concentration at which reduction of LPS-induced iNOS expression is significant ([1]; Western blot): 5 to 40 µM; NO production by LPS-activated cells ([2]; 2.5-40 µM, 30 min before and during LPS 1 µg/ml 24 h): decreased NO production by LPS-activated cells in a dose-dependent manner; ED50 (inhibition of LPS-induced NO production) ([2]; RAW 264.7 macrophages, LPS 1 µg/ml, 24 h, Griess reaction): 15 ± 2 µM; NO levels produced by non-activated cells ([2]; compound alone, no LPS (data not shown)): did not alter NO levels produced by non-activated cells; LPS-induced IL-6 secretion [3]: reduced secretion of IL-6 and TNF-α; LPS-induced TNF-α secretion [3]: reduced secretion of IL-6 and TNF-α; LPS-induced IL-6 secretion [4]: reduced LPS-induced IL-6 and TNF-α secretion; LPS-induced TNF-α secretion [4]: reduced LPS-induced IL-6 and TNF-α secretion; IC50 (RAW 264.7 cells): > 100 µM; NLRP3 inflammasome-mediated IL-1β secretion [5]: reduced NLRP3 inflammasome-mediated interleukin-1β (IL-1β) secretion
